Article PMC10808130, “Mobilization of cholesterol induces the transition from quiescence to growth in Caenorhabditis elegans through steroid hormone and mTOR signaling” (Communications Biology, 2024)

Key:
SCL-12 [1] = target: T1, SCL-12 (Caenorhabditis elegans, UniProt Q9N5N3); settings: 20 mM Tris pH 7.5, 30 mM NaCl, 0.05% Triton X-100, room temperature; 0-100 nM ligand; labelled compound
T1 sequence (Q9N5N3 17-208): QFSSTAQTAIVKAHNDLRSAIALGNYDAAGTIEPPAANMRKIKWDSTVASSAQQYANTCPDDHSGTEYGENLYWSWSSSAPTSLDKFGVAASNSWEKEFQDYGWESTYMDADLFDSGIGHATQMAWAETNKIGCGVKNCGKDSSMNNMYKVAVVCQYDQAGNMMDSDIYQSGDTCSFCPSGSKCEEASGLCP

SCL-12 [2] = target: T1, SCL-12; experiment: competition with TopFluor cholesterol fluorescence, protein captured on Q-Sepharose beads; format: binding; parameters: C-terminal polyhistidine tag; expressed in Sf9 insect cells (baculovirus); settings: 20 mM Tris pH 7.5, 30 mM NaCl, 0.05% Triton X-100, room temperature; pre-incubated with 50 or 100 nM cholesterol; competitive

Structure (SMILES): CC1=CC(C)=[N+]2C1=C(CC[C@@H](C)[C@H]1CC[C@H]3[C@@H]4CC=C5C[C@@H](O)CC[C@]5(C)[C@H]4CC[C@]13C)c1c(C)cc(C)n1[B-]2(F)F [TopFluor cholesterol]
- direct fluorescence binding, protein captured on Q-Sepharose beads (SCL-12 [1]): Binding of TopFluor cholesterol to SCL-12 is concentration-dependent

Structure (SMILES): CC(C)CCC[C@@H](C)[C@H]1CC[C@H]2[C@@H]3CC=C4C[C@@H](O)CC[C@]4(C)[C@H]3CC[C@]12C [cholesterol]
- competition with TopFluor cholesterol fluorescence, protein captured on Q-Sephar (SCL-12 [2]): SCL-12 was pre-incubated with unmodified cholesterol, which decreased the binding of TopFluor cholesterol significantly
